Source: patent publication US20140038920A1, “TFEB PHOSPHORYLATION INHIBITORS AND USES THEREOF” (FONDAZIONE TELETHON, priority 2011, published 2014)

Test system: TFEB
Assay: High content TFEB-GFP nuclear translocation assay
Assay type: cell-based
Conditions: Homo sapiens; mobilization of cytosolic TFEB to the nucleus; TFEB-GFP HeLa cells, 3 h at 37° C. in RPMI, ten concentrations 50 μM to 2.54 nM, 4 runs; read-out: Average EC50
Description: Immunoblotting of protein extracts isolated from HeLa cells treated overnight, as indicated. Membranes were probed with antibodies for p-T202/Y204-ERK1/2, ERK1/2, p-T389-S6K, and S6K to measure ERK and mTORC1 activities. […] FLAG immunoblotting of cytosolic and nuclear fractions isolated from TFEB-3×FLAG HeLa cells cultured in amino acid-free media and subsequently stimulated as indicated for at least 3 h. Correct subcellular fractionation was verified with H3 and tubulin antibodies. […] After 3 h at 37° C. in RPMI medium containing one of each of the compounds, the cells were washed, fixed, and stained with DAPI and photographed by using confocal automated microscopy (Opera high content system, Perkin Elmer). […] Scale bars represent 30 μm. […] The EC50 for each compound was calculated using Prism software (see Materials and Methods for details). […] Antibody used were p-T389-S6K, S6K and FLAG. […] HeLa cells stably expressing Flag-3×TFEB were infected with lentiviruses encoding a Short hairpin (Sh-) RNA targeting luciferase (control) or RagC and RagD mRNAs. […] TFEB localization was detected with a FLAG antibody, whereas tubulin and H3 were used as controls for the cytosolic and nuclear fraction, respectively; levels of S6K phosphorylation were used to test RagC and RagD knockdown efficiency.
After 3 hours at 37° C. in RPMI medium cells were washed, fixed, and stained with DAPI. For the acquisition of the images, ten pictures per each well of the 384-well plate were taken by using confocal automated microscopy (Opera high content system, Perkin Elmer). A dedicated script was developed to perform the analysis of TFEB localization on the different images (Acapella software, Perkin Elmer). The script calculates the ratio value resulting from the average intensity of nuclear TFEB-GFP fluorescence divided by the average of the cytosolic intensity of TFEB-GFP fluorescence. The results were normalized using negative (RPMI medium) and positive (HBSS starvation) control samples in the same plate. The data are represented by the percentage of nuclear translocation at the different concentrations of each compound using Prism software (GraphPad software). The EC50 for each compound was calculated using non-linear regression fitting (Prism software).
In order to find additional small molecules able to induce the translocation of TFEB from the cytosol to the nucleus, the applicants developed a cell-based high content assay using stable HeLa cells overexpressing TFEB fused to the green fluorescent protein (TFEB-GFP). In the assay imaging of treated cells is acquired by an automated confocal microscope (OPERA system) and the analysis of those images with Acapella image software calculates the ratio of the average of fluorescence intensity of TFEB-GFP between the cytosol and nucleus of the cell (see Materials and methods for details). […] They tested ten concentrations for each inhibitor.

EC50 | Compound
< 7 µM | Nc1ncnc2c1c(-c1cccc(OCc3ccccc3)c1)cn2C1CC(CN2CCCC2)C1 (stereo in doubt) [NVP-ADW742]
< 7 µM | CCN1CCN(Cc2ccc(-c3cc4c(N[C@H](C)c5ccccc5)ncnc4[nH]3)cc2)CC1 [AEE788]
< 7 µM | Clc1ccc(C2(c3ccc(-c4cn[nH]c4)cc3)CCNCC2)cc1 [AT7867]
7 to 15 µM | CN1CCN(CCOc2cc(OC3CCOCC3)c3c(Nc4c(Cl)ccc5c4OCO5)ncnc3c2)CC1 [AZD0530 (Saracatinib), Saracatinib]
< 7 µM | CN(C)C/C=C/C(=O)Nc1cc2c(Nc3ccc(F)c(Cl)c3)ncnc2cc1O[C@H]1CCOC1 [BIBW2992 (Tovok)]
7 to 15 µM | CN(C)Cc1cccc(N/C(=C2\C(=O)Nc3cc(C(=O)N(C)C)ccc32)c2ccccc2)c1 [BIX02189]
> 15 µM | CNC(=O)c1ccc2c(c1)NC(=O)/C2=C(\Nc1cccc(CN(C)C)c1)c1ccccc1 [BIX 02188]
7 to 15 µM | Nc1nccc(Oc2ccc(NC(=O)c3c[nH]cc(-c4ccc(F)cc4)c3=O)cc2F)c1Cl [BMS 794833]
< 7 µM | CC(C)c1cnn2c(NCc3ccccc3)cc(NCCCCCCN)nc12 [BS181]
< 7 µM | CN(C)c1ccc(-c2nc3c(N4CCN(CC(=O)Nc5nccs5)CC4)c(Cl)cnc3[nH]2)cc1 [CCT129202]
< 7 µM | Cc1c[nH]c(-c2cnc(NCCNc3ccc(C#N)cn3)nc2-c2ccc(Cl)cc2Cl)n1 [CHIR99021]
< 7 µM | C=CC(=O)Nc1cc2c(Nc3ccc(F)c(Cl)c3)ncnc2cc1OCCCN1CCOCC1 [CI-1033]
< 7 µM | Cc1nc(N)sc1-c1ccnc(Nc2ccc(N3CCOCC3)cc2)n1 [CYC116]
< 7 µM | COc1cc2c(Oc3ccc4[nH]c(C)cc4c3F)ncnc2cc1OCCCN1CCCC1 [Cediranib (AZD2171), Cediranib]
7 to 15 µM | CO[C@H]1C[C@@H]2CC[C@@H](C)[C@@](O)(O2)C(=O)C(=O)N2CCCC[C@H]2C(=O)O[C@H]([C@H](C)C[C@@H]2CC[C@@H](OP(C)(C)=O)[C@H](OC)C2)CC(=O)[C@H](C)/C=C(\C)[C@@H](O)[C@@H](OC)C(=O)[C@H](C)C[C@H](C)/C=C/C=C/C=C/1C [Deforolimus]
< 7 µM | Cc1cc(Nc2cc(N3CCN(C)CC3)nc(/C=C/c3ccccc3)n2)n[nH]1 [ENMD-2076]
< 7 µM | Cn1cc(C2=C(c3cn(C4CCN(Cc5ccccn5)CC4)c4ccccc34)C(=O)NC2=O)c2ccccc21 [Enzastaurin]
> 15 µM | CO[C@H]1C[C@@H]2CC[C@@H](C)[C@@](O)(O2)C(=O)C(=O)N2CCCC[C@H]2C(=O)O[C@H]([C@H](C)C[C@@H]2CC[C@@H](OCCO)[C@H](OC)C2)CC(=O)[C@H](C)/C=C(\C)[C@@H](O)[C@@H](OC)C(=O)[C@H](C)C[C@H](C)/C=C/C=C/C=C/1C [Everolimus (RAD001), Everolimus]
< 7 µM | C[C@@H](Oc1cc(-n2cnc3ccc(CN4CCN(C)CC4)cc32)sc1C(N)=O)c1ccccc1C(F)(F)F [GSK461364]
< 7 µM | O=C1NC(=O)C(Cc2ccc3nccc(-c4ccncc4)c3c2)S1 (stereo not drawn) [GSK1059615]
7 to 15 µM | CCS(=O)(=O)Nc1ccc2c(c1)/C(=C(/Nc1ccc(CN3CCCCC3)cc1)c1ccccc1)C(=O)N2 [Hesperadin]
7 to 15 µM | Nc1nc(Nc2ccc(S(N)(=O)=O)cc2)nn1C(=O)c1c(F)cccc1F [JNJ-7706621]
< 7 µM | COc1ccc(-c2ccc3c(N4CCOCC4)nc(N4C[C@@H](C)O[C@@H](C)C4)nc3n2)cc1CO [KU0063794]

EC50 | Compound
< 7 µM | O=c1cc(-c2cccc3c2Sc2ccccc2S3)oc(N2CCOCC2)c1 [KU-55933]
> 15 µM | C[C@@H]1CN(CC(=O)Nc2ccc3c(c2)Cc2cccc(-c4cc(=O)cc(N5CCOCC5)o4)c2S3)C[C@H](C)O1 [KU-60019]
< 7 µM | COc1cc2nccc(Oc3ccc(NC(=O)Nc4ccc(F)cc4F)c(F)c3)c2cc1OC [Ki8751]
< 7 µM | CC(C)(C)Cn1c(N)nc2ccc(-c3[nH]c(C(C)(C)C)nc3-c3ccc(F)cc3)nc21 [LY2228820]
< 7 µM | Cc1cc(Nc2cc(CN3CCOCC3)c3nc(C)c(Cc4ccc(Cl)cc4F)n3n2)[nH]n1 [LY2784544]
< 7 µM | CS(=O)(=O)CCNCc1ccc(-c2ccc3ncnc(Nc4ccc(OCc5cccc(F)c5)c(Cl)c4)c3c2)o1 [Lapatinib Ditosylate]
7 to 15 µM | NC1(c2ccc(-c3nc4ccn5c(=O)[nH]nc5c4cc3-c3ccccc3)cc2)CCC1 [MK-2206]
< 7 µM | Cn1c(=O)n(-c2ccc(C(C)(C)C#N)cc2)c2c3cc(-c4cnc5ccccc5c4)ccc3ncc21 [NVP-BEZ235]
< 7 µM | COc1cc(N2CCC(N3CCN(C)CC3)CC2)ccc1Nc1ncc(Cl)c(Nc2ccccc2S(=O)(=O)C(C)C)n1 [NVP-TAE684]
< 7 µM | C[C@@H](Oc1cc(-c2cnn(C3CCNCC3)c2)cnc1N)c1c(Cl)ccc(F)c1Cl [PF-02341066]
< 7 µM | Oc1cccc(-c2nc(N3CCOCC3)c3oc4ncccc4c3n2)c1 [PI103]
< 7 µM | Cc1ccc([N+](=O)[O-])cc1S(=O)(=O)N(C)/N=C/c1cnc2ccc(Br)cn12 [PIK75]
> 15 µM | O=C1c2ccccc2-c2n[nH]c3cccc1c23 [SP600125]
< 7 µM | CCN(CC)CCNC(=O)c1c(C)[nH]c(/C=C2\C(=O)Nc3ccc(F)cc32)c1C [Sunitinib Malate]
< 7 µM | Cc1cc(C(C)Nc2ccccc2)c2nc(N3CCOCC3)cc(=O)n2c1 (stereo not drawn) [TGX 221]
7 to 15 µM | CO[C@H]1C[C@@H]2CC[C@@H](C)[C@@](O)(O2)C(=O)C(=O)N2CCCC[C@H]2C(=O)O[C@H]([C@H](C)C[C@@H]2CC[C@@H](OC(=O)C(C)(CO)CO)[C@H](OC)C2)CC(=O)[C@H](C)/C=C(\C)[C@@H](O)[C@@H](OC)C(=O)[C@H](C)C[C@H](C)/C=C/C=C/C=C/1C [Temsirolimus]
< 7 µM | COc1cc2c(Nc3ccc(Br)cc3F)ncnc2cc1OCC1CCN(C)CC1 [Vandetanib]
< 7 µM | CCC1=C[C@@H]2CN(C1)Cc1c([nH]c3ccccc13)[C@@](C(=O)OC)(c1cc3c(cc1OC)N(C)[C@H]1[C@@](O)(C(=O)OC)[C@H](OC(C)=O)[C@]4(CC)C=CCN5CC[C@]31[C@@H]54)C2 [Vinorelbine]
7 to 15 µM | COC(=O)Nc1ccc(-c2nc(N3CCOCC3)c3cnn(C4CCN(C(=O)OC)CC4)c3n2)cc1 [WYE354]
7 to 15 µM | C=CC(=O)Nc1cccc(Oc2nc(Nc3ccc(N4CCN(C)CC4)cc3OC)ncc2Cl)c1 [WZ4002]
< 7 µM | Cc1ccc(S(=O)(=O)Nc2nc3ccccc3nc2Nc2ccc3nsnc3c2)cc1 [XL147]
< 7 µM | COc1cc2c(Oc3ccc(NC(=O)C4(C(=O)Nc5ccc(F)cc5)CC4)cc3F)ccnc2cc1OCCCN1CCOCC1 [XL880 (GSK1363089)]
< 7 µM | FC(F)c1nc2ccccc2n1-c1nc(N2CCOCC2)nc(N2CCOCC2)n1 [ZSTK474]

Compound | EC50
Cc1ccc(C(=O)Nc2ccc(CN3CCN(C)CC3)c(C(F)(F)F)c2)cc1C#Cc1cnc2cccnn12 [AP24534] | < 7 µM
CCN1CCN(C(=O)Cc2ccc(Nc3ncc(F)c(Nc4ccc(C(=O)Nc5ccccc5Cl)cc4)n3)cc2)CC1 [Aurora A inhibitor 1] | < 7 µM
CC[C@@H]1C(=O)N(C)c2cnc(Nc3ccc(C(=O)NC4CCN(C)CC4)cc3OC)nc2N1C1CCCC1 [BI2536] | < 7 µM
CCOc1cc2ncc(C#N)c(Nc3ccc(OCc4ccccn4)c(Cl)c3)c2cc1NC(=O)/C=C/CN(C)C [Neratinib] | > 15 µM
O=C(NOC[C@H](O)CO)c1ccc(F)c(F)c1Nc1ccc(I)cc1F [PD0325901] | > 15 µM
